Results on 2 compounds are retold here after paper PMC4140855, “Production of an Attenuated Phenol-Soluble Modulin Variant Unique to the MRSA Clonal Complex 30 Increases Severity of Bloodstream Infection” (PLoS Pathogens, 2014).

What is called Kd is the concentration at which binding is half-saturated. A lower Kd goes with a tighter complex.

For test [1], the target named is T1, FPR3 (Homo sapiens, UniProt P25089).
T1 construct: expressed in transfected cells; host or cells: HL60 cells, stably transfected
T1 sequence (P25089 1-353): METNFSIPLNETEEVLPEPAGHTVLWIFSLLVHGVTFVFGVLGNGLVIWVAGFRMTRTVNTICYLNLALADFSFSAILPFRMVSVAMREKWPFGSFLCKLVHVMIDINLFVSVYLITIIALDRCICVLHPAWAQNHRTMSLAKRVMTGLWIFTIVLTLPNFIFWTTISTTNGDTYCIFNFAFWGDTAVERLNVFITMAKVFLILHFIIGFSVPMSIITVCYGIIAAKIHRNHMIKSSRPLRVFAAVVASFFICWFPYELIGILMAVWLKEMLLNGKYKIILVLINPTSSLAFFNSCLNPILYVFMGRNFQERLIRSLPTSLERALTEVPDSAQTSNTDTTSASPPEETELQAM
Nature of the test: Ca2+ flux in HL60 cells stably transfected with FPR3. Conditions: one site-binding model from Ca2+ flux, synthetic peptides, three biological and two technical replicates, error = standard deviation. Format: cell-based. As to the method: Next, we analyzed Ca^2+ flux as a general measure to test for neutrophil activation, as used in previous studies. HL60 cells stably transfected with different FPR receptor genes were used to determine which FPR receptors are differentially activated by PSMα3 versus PSMα3N22Y (Fig. 4A). […] At a peptide concentration of 100 nM, we observed a difference of ∼factor 2 in chemotactic activity comparing the two peptides when FPR1 recognition was inhibited by CHIPS, likely attributable to FPR2-mediated recognition. […]
(A) Differential activation of FPRs by PSMα3 versus PSMα3N22Y was measured using synthetic peptides and Ca^2+ flux observed in HL60 cells stably transfected with the corresponding FPR genes as readout, using three biological and two technical replicates. The calculated Kd values are shown on the right. […]
Human neutrophils were isolated from venous blood of healthy donors as described, [39]. Neutrophil chemotaxis and Ca^2+ flux were determined as previously described, [24]. […] Chemotaxis of neutrophils was determined using a transwell system (Costar) with analysis of neutrophil migration using fluorescence labeling. Calcium fluxes were monitored as a surrogate marker for chemotaxis since it can be measured more robustly and accurately than chemotaxis. […] Measurements of 2,000 events were performed and Ca^2+ flux was expressed as relative fluorescence corrected for buffer controls. […]

Test [2] has as its system human erythrocytes. Nature of the test: Hemolysis. It counts as cell-based. The conditions noted are these: synthetic peptides, 37°C, 1 h, 2% erythrocytes, OD 540 nm; 2 donors, triplicate; compared to PSMα3N22Y. As to the method: Figure 5 PSMα3N22Y has diminished cytolytic activities. (A) PMN lysis of synthetic PSMα3N22Y versus PSMα3. Data are from 2 donors, measured in triplicate each after incubation at 37°C for 1 h. […] (B) Hemolysis of synthetic PSMα3N22Y versus PSMα3. Data are from 2 donors, measured in triplicate, after incubation at 37°C for 1 h. (C, D) PMN lysis and hemolysis, respectively, of culture filtrates from PSMα3N22Y- versus PSMα3-producing strains when expressed on plasmids. pTXΔ16 is the empty control vector. The background strain in all constructs is a PSM-free USA300 strain (LACΔpsmαΔpsmβΔhld). Culture filtrates were diluted 1∶20 for the PMN lysis and 1∶2 for the hemolysis measurements. PMN lysis results are from two and hemolysis data from one donor, with three replicates measured each. (E) PMN lysis of culture filtrates from MRSA252 (252) versus 252*, in which the psmα3 gene (expressing PSMα3N22Y) on the genome was changed to express PSMα3 as present in all non-CC30 strains. […] Culture filtrates were diluted 1∶10. *, p<0.05 (paired t-test). […]
Hemolysis assays were performed according to Wang et al. Briefly, whole blood from humans was washed twice with ice-cold DPBS. […] After incubation at 37°C for 1 h, the plates were centrifuged at 233×g at 4°C for 5 min, supernatants were collected, and the optical density was measured at 540 nm.

Molecules are shown by their SMILES.

Turning to `CSCC[C@H](NC=O)C(=O)N[C@@H](CCC(=O)O)C(=O)N[C@@H](Cc1ccccc1)C(=O)N[C@H](C(=O)N[C@@H](C)C(=O)N[C@@H](CCCCN)C(=O)N[C@@H](CC(C)C)C(=O)N[C@@H](Cc1ccccc1)C(=O)N[C@@H](CCCCN)C(=O)N[C@@H](Cc1ccccc1)C(=O)N[C@@H](Cc1ccccc1)C(=O)N[C@@H](CCCCN)C(=O)N[C@@H](CC(=O)O)C(=O)N[C@@H](CC(C)C)C(=O)N[C@@H](CC(C)C)C(=O)NCC(=O)N[C@@H](CCCCN)C(=O)N[C@@H](Cc1ccccc1)C(=O)N[C@@H](CC(C)C)C(=O)NCC(=O)N[C@@H](CC(N)=O)C(=O)N[C@@H](Cc1ccc(O)cc1)C(=O)O)C(C)C` [PSMα3N22Y], the Kd in test [1] came out at 953 ± 254 nM.

With `CSCC[C@H](NC=O)C(=O)N[C@@H](CCC(=O)O)C(=O)N[C@@H](Cc1ccccc1)C(=O)N[C@H](C(=O)N[C@@H](C)C(=O)N[C@@H](CCCCN)C(=O)N[C@@H](CC(C)C)C(=O)N[C@@H](Cc1ccccc1)C(=O)N[C@@H](CCCCN)C(=O)N[C@@H](Cc1ccccc1)C(=O)N[C@@H](Cc1ccccc1)C(=O)N[C@@H](CCCCN)C(=O)N[C@@H](CC(=O)O)C(=O)N[C@@H](CC(C)C)C(=O)N[C@@H](CC(C)C)C(=O)NCC(=O)N[C@@H](CCCCN)C(=O)N[C@@H](Cc1ccccc1)C(=O)N[C@@H](CC(C)C)C(=O)NCC(=O)N[C@@H](CC(N)=O)C(=O)N[C@@H](CC(N)=O)C(=O)O)C(C)C` [PSMα3], the “Cytolytic capacity toward human erythrocytes” value in test [2] is on record as “significantly higher cytolytic capacities”.
